How the values were obtained:
[1] = tested on: endothelial cell NO production; experiment: Endothelial cell nitric oxide production by electron spin resonance (ESR); assay type: cell-based, bovine; conditions: endothelial cells, 37° C., 60 minutes, Mean±SEM
Protocol: Confluent endothelial cells were incubated with different peptide fragments V1-9aa, V2-10aa, and V3-11aa at the same molar concentration of 1.47 nmol/L at 37° C. for 60 minutes in modified Krebs/HEPEs buffer containing the NO-specific spin trap Fe^2+(DETC)2. Cells were then gently collected for analysis of NO production by using electron spin resonance (ESR).
Confluent endothelial cells were incubated with different combination of peptide fragments V1-9aa alone, V1-9aa+V2-10aa (1:1), V1-9aa+V3-11aa (1:1), and V2-10aa+V3-11aa (1:1) at the same total molar concentration of 1.47 nmol/L at 37° C. for 60 minutes in modified Krebs/HEPEs buffer containing the NO-specific spin trap Fe^2+(DETC)2. Cells were then gently collected for analysis of NO production by using electron spin resonance (ESR).
To further identify the synergistic effects peptide fragments according to the present invention, endothelial cells were treated with different combinations of peptide fragments. The treatment groups were: V1-9aa+V2-10aa group, V1-9aa+V3-11aa group, and V2-10aa+V3-11aa group. The amount of each peptide fragment was 50% of the total amount by molar concentration (or equal volume at the same molar concentration) of peptide fragments in the composition, and the final molar concentration was 1.47 nmol/L. Control group (no peptide treatment) and V1-9aa group (1.47 nmol/L) were used to compare with the combination groups. The results, shown in FIG. 7, indicate that the V1-9aa+V2-10aa group produced more NO than the V1-9aa group (V1-9aa+V2-10aa: 1.90±0.50 fold vs. V1-9aa: 1.42±0.18 fold, p<0.05).
Bovine aortic endothelial cells (BAECs, Cell Systems, Kirkland, Wash., USA) were cultured in media 199 containing 10% fetal bovine serum (FBS) as previously described. See Chalupsky & Cai, PNAS USA 2005; 102:9056-9061; and Nguyen & Cai, PNAS USA 2006; 103:6530-6535.

I/R-injured mouse hearts = experiment: Langendorff ischemia/reperfusion injury of isolated mouse hearts, post-conditioning (peptide at reperfusion); infarct size by TTC; set-up: species or system mouse (C57BL/6J); conditions: isolated C57BL6 hearts, peptide 1.47 nmol/L during 60 min reperfusion after 20 min ischemia, Control I/R 37.6±1.3%, Mean±SEM
Protocol: Hearts of C57BL6 mice were freshly isolated and subject to ischemia reperfusion (I/R) injury using a Langendorff perfusion system. Hearts were pre-perfused with Krebs-Henseleit buffer for 40 minutes, and then I/R injury was consistently produced by subjecting the hearts to 20 minutes of normo-thermic ischemia, followed by reperfusion for 60 minutes with or without peptide fragment V1, V2, or V3 at the same molar concentration of 1.47 nmol/L. Sections of hearts were stained with 2,3,5-TTC and infarct area calculated as % of risk area.
Post-conditioning I/R experiments were performed as illustrated in FIG. 4A. Different peptide fragments V1-9aa, V2-10aa, V3-16aa, and V3-11aa were used at the same molar concentration of 1.47 nmol/L. Sections of hearts were stained with 2,3,5-TTC and infarct area calculated as % of risk area.
Male C57BL/6J mice (8-12 weeks old) were obtained from the Charles River Laboratories (Wilmington, Mass., USA). After anesthetized with intraperitoneal pentobarbitone (60 mg/kg), mouse hearts were harvested immediately and the aortas were cannulated with a 20-gauge stainless steel blunt needle and transferred to the Langendorff rig and perfused retrograde instantly with modified Krebs-Henseleit buffer (KHB) […] as previously described. See Bouhidel et al. Front Biosci (Landmark Ed) 2014; 19:566-570, and Zhang et al., J Mol Cell Cardiol. 2010; 48:1060-1070. […] Hearts were then harvested for analyses of infarct size. For post-conditioning treatment with peptide fragments, hearts underwent 40 minutes of KHB perfusion, 20 minutes of global ischemia, and a 60 minute reperfusion with different peptide fragments.
At the end of I/R protocol, hearts were sliced perpendicular to the long-axis of the heart at 1 mm intervals and stained with 1% triphenyl tetrazolium chloride (TTC) in PBS for 10 minutes at room temperature. After washing with PBS once, sections of the hearts will be fixed in 10% formalin overnight. […] Infarct size is expressed as an infarct-to-risk zone ratio (the risk zone is the whole ventricular volume in this global ischemic model).

[2] = single peptide 1.47 nmol/L, ESR (FIG. 6)

Row | Substance | NO production, fold vs. control ([1]; combination experiment (FIG. 7), 1:1, total 1.47 nmol/L, ESR) [fold] | NO production, fold vs. control [1, 2] [fold] | infarct size (infarct area as % of risk area) (I/R-injured mouse hearts) [%]
1 | V1-9aa: SEQ ID NO: 4, residues 304-312 of human netrin-1: CDCRHNTAG (listed as Homo sapiens) | 1.42±0.18 | 1.50±0.09 | 16.8±2.2
2 | V2-10aa: SEQ ID NO: 5, residues 368-377 of human netrin-1: CLNCRHNTAG (listed as Homo sapiens) |  | 1.44±0.08 | 18.6±1.7
3 | V3-11aa: SEQ ID NO: 6, residues 423-433 of human netrin-1: CPCKDGVTGIT (listed as Homo sapiens) |  | 1.45±0.11 | 16.7±3.0

From patent publication US10550163B2 (The Regents of the University of California, priority 2014, dated 2020)
